According to patent US4614746A, “5-fluorobenzonitrile derivatives for increasing the lean meat to fat ratio and/or enhancing the growth rate of warm-blooded animals” (American Cyanamid Company, priority 1985, dated 1986):

Columns and labels:
CFI female mice [1] = test: Antilipogenic evaluation of test compounds - mouse study (Example 6, procedure of Example 4); format: in vivo
Method: CFI female mice from Carworth Farms are received when they are six-weeks old. They are housed ten to a cage in air-conditioned rooms (22° C. to 25° C.) with automatically-controlled lights, 14 hours on and ten hours off. The basal diet used in these studies is Purina Laboratory Chow (see description below) which is supplied ad libitum.
Thirteen days after arrival, the mice are weighed in groups of ten and assigned at random to the different treatments. Each of the treatments is tested in three replicates, i.e., in three cages of ten mice each. There are ten cages of ten control mice each. Drugs are mixed in the diet at the dosage level indicated. Feed and water are offered ad libitum for a 12-day test period. Feed spilled is collected during the test period. At the end of the test period, the collected feed is weighed, and the mean feed consumption per cage of ten mice is determined for each treatment. The mice are weighed as a group of ten, and the weight gain determined. The mice are sacrificed by cervical dislocation. The right uterine fat pad of each mouse is removed. The fat pads for each cage of ten mice are weighed as a unit. Reduction in fat pad weights of animals is generally indicative of a reduction of total body fat of the treated animals.
Following the procedure of Example 4, the analogues of the compounds of the invention in the subject Application are evaluated as antilipogenic agents.

CFI female mice [2] = test: Antilipogenic evaluation of test compounds - mouse study (fat pad and body weight, 12-day feeding); format: in vivo; conditions: 12 days
Method: CFI female mice from Carworth Farms are received when they are six-weeks old. They are housed ten to a cage in air-conditioned rooms (22° C. to 25° C.) with automatically-controlled lights, 14 hours on and ten hours off. The basal diet used in these studies is Purina Laboratory Chow (see description below) which is supplied ad libitum. The following is a description of the diet to which the growth-promoting compounds were added. Meat and bone meal, dried skimmed milk, wheat germ meal, fish meal, animal liver meal, dried beet pulp, ground extruded corn, ground oat groats, soybean meal, dehydrated alfalfa metal, cane molasses, animal fat preserved with BHA, vitamin B12 supplement, calcium pantothenate, choline chloride, folic acid, riboflavin supplement, brewer's dried yeast, thiamin, niacin, vitamin A supplement, D-activated plant sterol, vitamin E supplement, calcium carbonate, dicalcium phosphate, iodized salt, ferric ammonium citrate, iron oxide, manganous oxide, cobalt carbonate, copper oxide, zinc oxide. Water is also allowed ad libitum. Thirteen days after arrival, the mice are weighed in groups of ten and assigned at random to the different treatments. Each of the treatments is tested in three replicates, i.e., in three cages of ten mice each. There are ten cages of ten control mice each. Drugs are mixed in the diet at the dosage level indicated. Feed and water are offered ad libitum for a 12-day test period. Feed spilled is collected during the test period. At the end of the test period, the collected feed is weighed, and the mean feed consumption per cage of ten mice is determined for each treatment. The mice are weighed as a group of ten, and the weight gain determined. The mice are sacrificed by cervical dislocation. The right uterine fat pad of each mouse is removed. The fat pads for each cage of ten mice are weighed as a unit. Reduction in fat pad weights of animals is generally indicative of a reduction of total body fat of the treated animals.

For `CC(C)(C)NCC(O)c1cc(F)cc(C#N)c1` (centres unmarked) [drawing 24], the “Mouse Test Fat Pad Weight % ± Control” value (CFI female mice [1]; 100 ppm) was -38.4% and the “Mouse Test Fat Pad Weight % ± Control” value (CFI female mice [1]; 200 ppm) was -42.9%.

`CC(C)(C)NCC(O)c1cc(F)cc(C#N)c1` (centres unmarked) [drawing 13] was tested, and the “% Change in Body Weight vs controls” value (CFI female mice [2]; 25 ppm in diet) was “+96.61%”, the “% Reduction in Fat Pad Weight vs Controls” value (“% Reduction” for short) (CFI female mice [2]; 25 ppm in diet) was -8.97% and the “% Change in Body Weight vs controls” value (CFI female mice [2]; 50 ppm in diet) was “+80.51%”. For the same molecule, the “% Reduction” value (CFI female mice [2]; 50 ppm in diet) was -14.04%, the “% Change in Body Weight vs controls” value (CFI female mice [2]; 100 ppm in diet) was “+65.25%” and the “% Reduction” value (CFI female mice [2]; 100 ppm in diet) was -29.65%. The “% Change in Body Weight vs controls” value (CFI female mice [2]; 200 ppm in diet) was “+55.93%” and the “% Reduction” value (CFI female mice [2]; 200 ppm in diet) was -38.13%.

For `CC(C)NCC(O)c1cc(F)cc(C#N)c1` (centres unmarked) [3-fluoro-5-[1-hydroxy-2-(isopropylamino)ethyl]-benzonitrile], the “effectiveness as an antilipogenic agent” value (CFI female mice [1]; 100 ppm or 200 ppm in the diet, versus related analogues) was “generally more effective as an antilipogenic agent than its related analogues”.

In the case of `CC(C)NCC(O)c1cc(F)cc(C#N)c1` (centres unmarked) [drawing 14], the “% Change in Body Weight vs controls” value (CFI female mice [2]; 3 ppm in diet) is reported as “+0.73%”, the “% Change in Body Weight vs controls” value (CFI female mice [2]; 6 ppm in diet) is reported as “+40.88%” and the “% Reduction” value (CFI female mice [2]; 6 ppm in diet) is reported as “+5.91%”. For the same molecule, the “% Change in Body Weight vs controls” value (CFI female mice [2]; 12.5 ppm in diet) was “+26.28%”, the “% Reduction” value (CFI female mice [2]; 12.5 ppm in diet) was -11.76% and the “% Change in Body Weight vs controls” value (CFI female mice [2]; 25 ppm in diet) was “+29.20%”. For the same molecule, the “% Reduction” value (CFI female mice [2]; 25 ppm in diet) was “+9.76%”, the “% Change in Body Weight vs controls” value (CFI female mice [2]; 50 ppm in diet) was “+78.10%” and the “% Reduction” value (CFI female mice [2]; 50 ppm in diet) was “+9.90%”. For the same molecule, the “% Change in Body Weight vs controls” value (CFI female mice [2]; 100 ppm in diet) was “+56.93%”, the “% Reduction” value (CFI female mice [2]; 100 ppm in diet) was -17.71% and the “% Change in Body Weight vs controls” value (CFI female mice [2]; 200 ppm in diet) was “+88.32%”. For the same molecule, the “% Reduction” value (CFI female mice [2]; 200 ppm in diet) was -33.29%, the “Mouse Test Fat Pad Weight % ± Control” value (CFI female mice [1]; 100 ppm) was -17.7% and the “Mouse Test Fat Pad Weight % ± Control” value (CFI female mice [1]; 200 ppm) was -33.3%.
